Laboratory results published in ChEMBL document CHEMBL5550160, “Leveraging a rationally designed veliparib-based anilide eliciting anti-leukemic effects for the design of pH-responsive polymer nanoformulation” (Eur J Med Chem, 2024).
Activity calls are given as the source filed them. The rule behind the calls is not given here.

Experiments:
Histone deacetylase 2 [1] = molecular target: T1, Histone deacetylase 2 (Homo sapiens, UniProt Q92769); experiment: Inhibition of HDAC2 (unknown origin) assessed as residual activity at 4.12 x 10^-8M (reference value: 99.81%); settings: dose 4.12 10^-8M
[2] = molecular target: Histone deacetylase 4 (Homo sapiens) (UniProt P56524); experiment: Inhibition of HDAC4 (unknown origin) assessed as residual activity at 4.12 x 10^-8M (reference value: 98.90%); settings: dose 4.12 10^-8M
Histone deacetylase 3 [3] = molecular target: T2, Histone deacetylase 3 (Homo sapiens, UniProt O15379); experiment: Inhibition of HDAC3 (unknown origin) using p53 residues 379 to 382 [RHKK(Ac)] as fluorogenic substrate assessed as residual activity at 4.57 x 10^-9M (reference value: 103.08%); settings: dose 4.57 10^-9M
HL-60 [4] = experiment: Induction of apoptosis in human HL-60 cells assessed as nuclear fragmentation at 0.5 to 1 times IC50 by DAPI staining based microscopic analysis; format: functional, cell-based
Histone deacetylase 3 [5] = molecular target: T2, Histone deacetylase 3; experiment: Inhibition of HDAC3 (unknown origin) using p53 residues 379 to 382 [RHKK(Ac)] as fluorogenic substrate
A549 = experiment: cells; format: functional, cell-based; settings: Homo sapiens
Description: Antiproliferative activity against human A549 cells assessed as inhibition of cell growth by MTT assay

HH = experiment: cells; format: functional, cell-based; settings: Homo sapiens
Description: Antiproliferative activity against human HH cells assessed as inhibition of cell growth by MTT assay

Histone deacetylase 2 [6] = molecular target: T1, Histone deacetylase 2; experiment: Inhibition of HDAC2 (unknown origin) assessed as residual activity at 1.37 x 10^-8M (reference value: 99.81%); settings: dose 1.37 10^-8M
Histone deacetylase 2 [7] = molecular target: T1, Histone deacetylase 2; experiment: Inhibition of HDAC2 (unknown origin)
[8] = molecular target: T3, Protein deacetylase HDAC6 (Homo sapiens) (UniProt Q9UBN7); experiment: Inhibition of HDAC6 (unknown origin) using p53 residues 379 to 382 [RHKK(Ac)] as fluorogenic substrate assessed as residual activity at 4.12 x 10^-8M (reference value: 101.06%); settings: dose 4.12 10^-8M
T3 sequence (whole entry): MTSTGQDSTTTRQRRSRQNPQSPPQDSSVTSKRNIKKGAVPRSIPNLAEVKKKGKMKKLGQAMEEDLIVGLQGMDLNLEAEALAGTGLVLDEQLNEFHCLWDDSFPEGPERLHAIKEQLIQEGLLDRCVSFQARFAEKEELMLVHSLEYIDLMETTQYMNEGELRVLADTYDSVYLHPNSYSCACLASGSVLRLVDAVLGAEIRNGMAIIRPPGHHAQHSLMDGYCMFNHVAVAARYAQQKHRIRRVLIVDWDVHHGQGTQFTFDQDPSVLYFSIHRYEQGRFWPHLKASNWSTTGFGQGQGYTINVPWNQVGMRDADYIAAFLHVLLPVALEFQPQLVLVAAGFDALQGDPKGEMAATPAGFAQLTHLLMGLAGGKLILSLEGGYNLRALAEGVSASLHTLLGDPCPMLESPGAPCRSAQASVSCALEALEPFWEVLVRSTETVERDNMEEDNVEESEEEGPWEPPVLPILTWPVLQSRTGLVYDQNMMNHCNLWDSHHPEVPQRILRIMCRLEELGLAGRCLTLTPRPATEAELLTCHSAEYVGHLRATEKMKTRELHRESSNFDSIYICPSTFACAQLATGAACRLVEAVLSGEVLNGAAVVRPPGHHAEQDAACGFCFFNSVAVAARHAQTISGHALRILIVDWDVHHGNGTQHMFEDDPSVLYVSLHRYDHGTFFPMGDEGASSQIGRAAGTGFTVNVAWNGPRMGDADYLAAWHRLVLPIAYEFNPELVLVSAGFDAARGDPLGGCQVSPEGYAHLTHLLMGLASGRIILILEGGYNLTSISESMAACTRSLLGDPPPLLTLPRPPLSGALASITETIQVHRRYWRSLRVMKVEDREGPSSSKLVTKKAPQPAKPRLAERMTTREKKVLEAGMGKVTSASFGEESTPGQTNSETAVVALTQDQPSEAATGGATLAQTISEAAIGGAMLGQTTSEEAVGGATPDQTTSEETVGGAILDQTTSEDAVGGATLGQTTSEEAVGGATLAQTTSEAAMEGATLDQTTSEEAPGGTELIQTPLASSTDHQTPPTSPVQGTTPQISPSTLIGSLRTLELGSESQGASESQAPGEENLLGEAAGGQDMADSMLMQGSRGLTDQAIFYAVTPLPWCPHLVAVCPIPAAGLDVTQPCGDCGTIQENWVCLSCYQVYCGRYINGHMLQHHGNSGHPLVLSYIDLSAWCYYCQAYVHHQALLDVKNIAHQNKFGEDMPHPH

FaDu = experiment: cells; format: functional, cell-based; settings: Homo sapiens
Description: Antiproliferative activity against human FaDu cells assessed as inhibition of cell growth by MTT assay

[9] = molecular target: T4, Histone deacetylase 8 (Homo sapiens) (UniProt Q9BY41); experiment: Inhibition of HDAC8 (unknown origin) assessed as residual activity at 3.33 x 10^-6M (reference value: 100%); settings: dose 3.33 10^-6M
T4 sequence (whole entry): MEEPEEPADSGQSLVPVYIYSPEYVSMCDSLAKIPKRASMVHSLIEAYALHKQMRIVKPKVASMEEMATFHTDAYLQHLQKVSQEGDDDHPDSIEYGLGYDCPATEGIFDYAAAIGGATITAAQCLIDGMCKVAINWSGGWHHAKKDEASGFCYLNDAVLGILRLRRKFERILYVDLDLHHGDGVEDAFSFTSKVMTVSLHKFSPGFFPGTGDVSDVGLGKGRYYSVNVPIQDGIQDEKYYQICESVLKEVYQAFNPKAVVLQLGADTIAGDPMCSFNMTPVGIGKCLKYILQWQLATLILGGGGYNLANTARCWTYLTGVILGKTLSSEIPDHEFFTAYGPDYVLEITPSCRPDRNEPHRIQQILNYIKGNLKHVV

[10] = molecular target: T4, Histone deacetylase 8 (Homo sapiens); experiment: Inhibition of HDAC8 (unknown origin) assessed as residual activity at 1.1 x 10^-6M (reference value: 100%); settings: dose 1.1 10^-6M
[11] = molecular target: Histone deacetylase 4 (Homo sapiens) (UniProt P56524); experiment: Inhibition of HDAC4 (unknown origin) assessed as residual activity at 4.57 x 10^-9M (reference value: 98.90%); settings: dose 4.57 10^-9M
HL-60 [12] = experiment: Induction of apoptosis in human HL-60 cells assessed as cell shrinkage at 0.5 to 1 times IC50 by DAPI staining based microscopic analysis; format: functional

T1 sequence (Q92769 whole entry): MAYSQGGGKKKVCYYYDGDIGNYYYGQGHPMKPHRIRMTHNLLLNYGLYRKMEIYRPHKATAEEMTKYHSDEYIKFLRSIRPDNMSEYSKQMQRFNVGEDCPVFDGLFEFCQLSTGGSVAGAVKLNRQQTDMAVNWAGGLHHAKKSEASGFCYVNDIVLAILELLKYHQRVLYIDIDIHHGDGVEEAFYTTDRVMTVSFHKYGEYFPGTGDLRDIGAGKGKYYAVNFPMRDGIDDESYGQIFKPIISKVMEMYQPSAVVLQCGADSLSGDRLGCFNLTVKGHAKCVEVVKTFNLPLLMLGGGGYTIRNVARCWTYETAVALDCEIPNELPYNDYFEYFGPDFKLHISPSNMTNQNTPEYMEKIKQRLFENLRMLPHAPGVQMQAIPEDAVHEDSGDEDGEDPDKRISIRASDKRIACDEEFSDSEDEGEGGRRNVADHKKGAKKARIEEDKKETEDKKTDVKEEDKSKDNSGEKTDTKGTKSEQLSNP
T2 sequence (O15379 whole entry, the tested form may be a part): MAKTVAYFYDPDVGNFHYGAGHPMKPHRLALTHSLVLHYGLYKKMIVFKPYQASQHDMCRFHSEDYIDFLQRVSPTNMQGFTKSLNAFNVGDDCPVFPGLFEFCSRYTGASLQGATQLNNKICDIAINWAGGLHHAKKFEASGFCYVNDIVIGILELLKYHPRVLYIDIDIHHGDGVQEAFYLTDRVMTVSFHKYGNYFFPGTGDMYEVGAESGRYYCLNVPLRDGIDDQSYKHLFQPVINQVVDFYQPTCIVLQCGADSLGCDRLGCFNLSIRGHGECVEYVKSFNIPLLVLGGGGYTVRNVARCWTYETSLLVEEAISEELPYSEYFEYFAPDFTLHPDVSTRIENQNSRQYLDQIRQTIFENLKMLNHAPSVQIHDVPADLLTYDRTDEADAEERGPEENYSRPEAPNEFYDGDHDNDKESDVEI
Sequence of Histone deacetylase 4 (Homo sapiens) (P56524 whole entry, the tested form may be a part): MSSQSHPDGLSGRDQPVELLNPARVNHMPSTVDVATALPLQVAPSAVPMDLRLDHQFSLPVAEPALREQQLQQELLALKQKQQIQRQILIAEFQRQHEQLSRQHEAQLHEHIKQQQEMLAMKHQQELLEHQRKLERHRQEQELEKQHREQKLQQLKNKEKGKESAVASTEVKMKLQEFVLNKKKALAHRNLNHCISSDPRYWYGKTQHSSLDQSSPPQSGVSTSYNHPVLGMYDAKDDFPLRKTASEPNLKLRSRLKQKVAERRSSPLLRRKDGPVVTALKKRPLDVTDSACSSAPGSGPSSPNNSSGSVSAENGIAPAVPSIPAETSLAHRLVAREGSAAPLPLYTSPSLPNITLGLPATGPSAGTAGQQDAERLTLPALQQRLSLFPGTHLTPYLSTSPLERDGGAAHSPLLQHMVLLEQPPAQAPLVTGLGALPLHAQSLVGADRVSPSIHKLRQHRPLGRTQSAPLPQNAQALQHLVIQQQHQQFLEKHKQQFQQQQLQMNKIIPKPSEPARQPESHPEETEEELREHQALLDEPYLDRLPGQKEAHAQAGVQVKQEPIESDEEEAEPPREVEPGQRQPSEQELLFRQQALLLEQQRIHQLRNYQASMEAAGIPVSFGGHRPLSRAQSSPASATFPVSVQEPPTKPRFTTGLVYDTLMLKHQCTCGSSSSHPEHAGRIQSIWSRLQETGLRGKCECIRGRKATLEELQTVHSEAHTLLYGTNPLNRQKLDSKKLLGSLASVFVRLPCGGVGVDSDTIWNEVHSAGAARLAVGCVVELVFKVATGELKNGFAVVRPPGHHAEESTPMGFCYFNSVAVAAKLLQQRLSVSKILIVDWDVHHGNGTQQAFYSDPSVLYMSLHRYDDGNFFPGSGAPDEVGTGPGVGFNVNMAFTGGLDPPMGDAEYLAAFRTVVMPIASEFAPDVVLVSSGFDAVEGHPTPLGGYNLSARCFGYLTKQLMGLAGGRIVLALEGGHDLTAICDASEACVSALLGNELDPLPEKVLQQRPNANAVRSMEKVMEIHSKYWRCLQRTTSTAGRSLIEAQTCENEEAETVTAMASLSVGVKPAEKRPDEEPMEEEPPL

Activity (Histone deacetylase 2 [1]): 69.7%
Activity [2]: 96%
Activity (Histone deacetylase 3 [3]): 111%
IC50 (Histone deacetylase 3 [5]): 0.393 µM
IC50 (A549): > 5 µM
IC50 (HH): 1.01 µM
Activity (Histone deacetylase 2 [6]): 86.2%
IC50 (Histone deacetylase 2 [7]): 0.147 µM
Activity [8]: 99.2%
IC50 (FaDu): > 10 µM
Activity [9]: 96.9%
Activity [10]: 104%
Activity [11]: 95.9%
Structure (SMILES): NC(=O)c1cccc2[nH]c(-c3ccc(NCc4ccc(C(=O)Nc5ccccc5N)cc4)cc3)nc12
Activity (HL-60 [4]): inactive
Activity (HL-60 [12]): inactive
